# Measurements as given in patent US12570698B2, “Stabilized peptides for covalent binding to target protein” (Dana-Farber Cancer Institute, Inc., priority 2015, dated 2026).
# Bridge positions count the residues as written; N and C are the ends. Square brackets hold non-standard residues; d marks the D form. Ends that are not written are not given here. S5 = C=CCCC[C@](C)(N)C(=O)O
# Legend:
# Bfl-1 [1] = target: T1, Bfl-1 (Homo sapiens, UniProt Q16548); test: Bfl-1: Warhead SAHB conjugation assay; assay type: binding; settings: warhead SAHBs, reducing conditions
# T1 sequence (Q16548 1-175): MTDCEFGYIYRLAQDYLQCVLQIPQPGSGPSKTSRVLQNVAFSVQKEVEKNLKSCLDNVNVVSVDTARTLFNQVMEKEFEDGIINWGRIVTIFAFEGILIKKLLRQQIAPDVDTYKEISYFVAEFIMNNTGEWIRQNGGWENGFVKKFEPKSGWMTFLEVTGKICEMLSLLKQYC
# Experimental: Various warhead SAHBs were tested in conjugation assays with Bfl-1. For this series of peptides the warhead at position J was selected from those depicted below.
# 10 μM Bfl-1 was reduced with DTT, then incubated with 3:1 molar ratio of warhead SAHB. Samples were then combined with loading dye, run on a 12% Bis-Tris SDS-PAGE, and stained with Coomassie. The same setup was used for all antiapoptotic proteins tested.
# Bfl-1 [2] = target: T1, Bfl-1; test: Competitive binding assay after pre-forming the Bfl-1:NOXA disulfide bond; settings: Bfl-1:NOXA disulfide bond pre-formed
# Experimental: The functional impact of the Bfl-1:NOXA disulfide bond formation was evaluated using competitive binding assays and liposomal release assays.
# A375P cells = test: Cell viability (CellTiter-Glo); assay type: cell-based, human; settings: 40 μM, over time
# Experimental: We confirmed by LDH release assay that BIM SAHBs had no membranolytic effect on the cells (FIG. 16B). The observed cytotoxicity was instead consistent with mitochondrial apoptosis induction, as reflected by time-responsive caspase 3/7 activation (FIG. 16C) and mitochondrial cytochrome c release (FIG. 16D).
# (§1) Cell Viability, LDH Release, and Caspase-3/7 Activation Assays: Cancer cells were cultured using their standard culture media containing 10% FBS and penicillin/streptomycin (A375P: DMEM; SK-MEL-2, SK-MEL-28 and MCF-7: EMEM; A549, H929: RPMI). […] Cell viability and caspase 3/7 activation was measured using CellTiter-Glo and Caspase-Glo 3/7 chemiluminescence reagents (Promega), respectively, and luminescence detected by a microplate reader (Spectramax M5, Molecular Devices). LDH release was quantified after 30 min peptide incubation by plate centrifugation at 1500 rpm for 5 min at 4° C., transfer of 100 μL cell culture media to a clear plate (Corning), incubation with 100 μL LDH reagent (Roche) for 30 min while shaking, and measurement of absorbance at 490 nm on a Spectramax M5 microplate reader.
# MCF7 = test: Cytotoxicity and caspase 3/7 activation; assay type: cell-based; settings: non-melanoma line; data not shown
# Experimental: as §1
# SK-MEL-2 = test: Cytotoxicity and caspase 3/7 activation; assay type: cell-based; settings: BFL-1 expressing melanoma line; data not shown
# Experimental: as §1
# H929 = test: Cytotoxicity and caspase 3/7 activation; assay type: cell-based; settings: non-melanoma line; data not shown
# Experimental: as §1
# A549 = test: Cytotoxicity and caspase 3/7 activation; assay type: cell-based; settings: non-melanoma line; data not shown
# Experimental: as §1
# SK-MEL-28 = test: Cytotoxicity and caspase 3/7 activation; assay type: cell-based; settings: BFL-1 expressing melanoma line; data not shown
# Experimental: as §1
# HA-BFL-1ΔC C4S/C19S = target: T2, HA-BFL-1ΔC C4S/C19S (Homo sapiens, UniProt Q16548, C19S/C4S); test: Competition with tBID in 293T lysates (immunoprecipitation); assay type: binding; settings: 5 μM biotinylated peptide, 0.25 μM tBID, 6 h RT
# T2 construct: BFL-1ΔC (aa 1-153); expressed in transfected cells; host or cells: 293T cells, pCMV plasmid, transient
# T2 sequence (Q16548 1-153 C4S/C19S): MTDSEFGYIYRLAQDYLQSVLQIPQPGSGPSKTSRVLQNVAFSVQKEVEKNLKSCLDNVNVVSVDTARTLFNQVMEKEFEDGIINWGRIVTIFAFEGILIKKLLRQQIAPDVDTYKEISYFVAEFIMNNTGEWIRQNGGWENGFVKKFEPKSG
# Experimental: Protein concentration of the soluble fraction was measured using a BCA kit according to manufacturer's instructions (Thermo Scientific). […] After 24 h, cells were trypsinized, washed with PBS, lysed in 1% CHAPS buffer, and the supernatant collected for protein concentration determination by BCA kit. […] Cells were harvested and lysed as above, and incubated overnight with anti-HA agarose beads (Pierce). The beads were washed 3 times with lysis buffer, eluted by boiling in LDS buffer, and subjected to western analysis with HA and biotin antibodies. […] Biotin capture was accomplished by incubating the mixture with high-capacity SA agarose (Thermo Scientific) for 2 h at 4° C., followed by centrifugation and washing the pelleted beads with 3×1 mL lysis buffer.
# MCL-1 = target: T3, MCL-1 (Homo sapiens, UniProt Q07820); test: SA pull-down from A375P lysates, MCL-1 western; assay type: binding; settings: biotinylated SAHBs
# T3 construct: we incubated A375P lysates with the corresponding biotinylated BIM SAHBs; endogenous in cells; host or cells: A375P melanoma cell lysate
# FLAG-MCL-1 = target: T4, FLAG-MCL-1 (Homo sapiens, UniProt Q07820); test: Competition with tBID in 293T lysates (immunoprecipitation); assay type: binding; settings: 5 μM biotinylated peptide, 0.25 μM tBID, 6 h RT
# T4 construct: expressed in transfected cells; host or cells: 293T cells, p3×FLAG-CMV-10 vector, transient
# Experimental: 293T cells were maintained in DMEM containing 10% FBS and penicillin/streptomycin, and transfections performed with 2 μg pCMV plasmid containing HA-BFL-1ΔC C4S/C19S using X-tremeGENE 9 (Roche). For lysate experiments, cells were trypsinized 24 hours post-transfection, washed with PBS, and lysed by incubation with 1% CHAPS lysis buffer (150 mM NaCl, 50 mM Tris pH 7.4, 100 mM DTT). Protein concentration of the soluble fraction was measured using a BCA kit according to manufacturer's instructions (Thermo Scientific). […] Samples were then boiled in LDS buffer and subjected to western analysis using 1:1000 dilutions of HA (Sigma-Aldrich, #12CA5) and biotin (Abcam, #53494) antibodies. To evaluate the capacity of biotinylated SAHBs to compete with tBID for interactions with BFL-1 and MCL-1, 293T cells were transfected with either HA-BFL-1ΔC C4S/C19S or FLAG-MCL-1 in the p3×FLAG-CMV-10 vector (Sigma) as above. After 24 h, cells were trypsinized, washed with PBS, lysed in 1% CHAPS buffer, and the supernatant collected for protein concentration determination by BCA kit. […] The mixtures were then subjected to HA or FLAG (Sigma-Aldrich, F7425) immunoprecipitation, followed by western analysis using 1:1000 dilutions of HA, FLAG, biotin, and BID (Santa Cruz sc-11423) antibodies. […] Cells were harvested and lysed as above, and incubated overnight with anti-HA agarose beads (Pierce). […]
# T4 sequence (Q07820 whole entry): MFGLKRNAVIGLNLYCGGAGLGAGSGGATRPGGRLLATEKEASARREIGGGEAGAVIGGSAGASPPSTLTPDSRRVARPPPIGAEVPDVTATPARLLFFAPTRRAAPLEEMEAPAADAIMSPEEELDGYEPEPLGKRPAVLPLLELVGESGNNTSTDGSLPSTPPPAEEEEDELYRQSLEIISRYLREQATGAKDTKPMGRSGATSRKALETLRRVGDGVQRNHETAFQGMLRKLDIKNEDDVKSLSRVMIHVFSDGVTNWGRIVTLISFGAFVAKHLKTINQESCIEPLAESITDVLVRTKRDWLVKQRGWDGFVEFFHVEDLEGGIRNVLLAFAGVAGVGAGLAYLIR
compound,measurement,setting,value
O=C(O)[C@@H]1CCCCN1 [L-homoproline],covalent binding efficiency,Bfl-1 [1],less efficient
NOXA SAHBA C25S: NOXA SAHBA with C25S mutation; SEQ ID NO: 128 (AELEVESATQLR[S5]FGD[S5]LNFRQKLL; staple 13-17; not fully specified),availability of the Bfl-1 binding pocket to another FITC BH3 domain,Bfl-1 [2],abrogated these inhibitory effects
O=C(O)[C@H]1CCCCN1 [D-homoproline],covalent binding efficiency,Bfl-1 [1],less efficient
C=CC(=O)N1CCC[C@@H](C(=O)N[C@H](C(=O)N[C@@H](C)C(=O)N[C@@H](CCC(N)=O)C(=O)N[C@@H](CCC(=O)O)C(=O)N[C@@H](CC(C)C)C(=O)N[C@@H](CCCNC(=N)N)C(=O)N[C@@]2(C)CCCC=CCCC[C@@](C)(C(=O)N[C@@H](Cc3ccccc3)C(=O)N[C@@H](CC(N)=O)C(=O)N[C@@H](C)C(=O)N[C@@H](Cc3ccc(O)cc3)C(=O)N[C@@H](Cc3ccc(O)cc3)C(=O)N[C@@H](C)C(=O)N[C@@H](CCCNC(=N)N)C(=O)N[C@@H](CCCNC(=N)N)C(N)=O)NC(=O)[C@H](CC(=O)O)NC(=O)CNC(=O)[C@H]([C@@H](C)CC)NC2=O)[C@@H](C)CC)C1 [BIM SAHBA-3],cytotoxicity compared to BIM SAHBA1,A375P cells,significant enhancement in cytotoxicity over time
same,enhancement in cytotoxicity and caspase 3/7 activation,MCF7,no evidence of this phenomenon
same,enhancement in cytotoxicity and caspase 3/7 activation,SK-MEL-2,comparative enhancement in cytotoxicity and caspase 3/7 activation
same,enhancement in cytotoxicity and caspase 3/7 activation,H929,no evidence of this phenomenon
same,enhancement in cytotoxicity and caspase 3/7 activation,A549,no evidence of this phenomenon
same,enhancement in cytotoxicity and caspase 3/7 activation,SK-MEL-28,comparative enhancement in cytotoxicity and caspase 3/7 activation
"BIM SAHBA: BIM SAHBA (aa 147-166), corresponding construct lacking the acrylamide-based warhead",competition with tBID for HA-BFL-1 binding,HA-BFL-1ΔC C4S/C19S,incapable of competing with tBID for HA-BFL-1 binding
same,binding to MCL-1,MCL-1,equivalent binding to anti-apoptotic MCL-1
same,competition with tBID for FLAG-MCL-1,FLAG-MCL-1,equally effective at competing with tBID
CN(C)C/C=C/C(=O)O [trans-4-dimethylaminocrotonic acid],covalent binding efficiency,Bfl-1 [1],less efficient
